Results reported in PubChem BioAssay AID2060907 (Molecular Pharmacology Branch, DTP, NCI, 2025).

System: 388556-164-R-J1-PDC complex spheroid viability
Test: Anticancer human tumor 388556-164-R-J1-PDC patient-derived colon adenocarcinoma cell line growth inhibition [RAS]
Details: for IC50: curve of first compound; for viability, T/C: stronger effect = lower value
Procedure, shortened: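 Multi-cell-type spheroids: tumor cells plus HUVEC endothelial cells and mesenchymal stem cells. RAS-pathway inhibitors were combined with targeted agents, each dosed in half-log steps down from clinical Cmax, or from 10 microM when Cmax was unknown.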

[1] = second compound 0.000949 µM, first compound 0.0316 µM
[2] = second compound 0.000949 µM, first compound 0.1 µM
[3] = second compound 0.000949 µM, first compound 0.316 µM
[4] = second compound 0.000949 µM, first compound 1 µM
[5] = second compound 0.000949 µM, first compound 3.16 µM
[6] = second compound 0.000949 µM, first compound 10 µM
[7] = second compound 0.003 µM, first compound 0.0316 µM
[8] = second compound 0.003 µM, first compound 0.1 µM
[9] = second compound 0.003 µM, first compound 0.316 µM
[10] = second compound 0.003 µM, first compound 1 µM
[11] = second compound 0.003 µM, first compound 3.16 µM
[12] = second compound 0.003 µM, first compound 10 µM
[13] = second compound 0.00949 µM, first compound 0.0316 µM
[14] = second compound 0.00949 µM, first compound 0.1 µM
[15] = second compound 0.00949 µM, first compound 0.316 µM
[16] = second compound 0.00949 µM, first compound 1 µM
[17] = second compound 0.00949 µM, first compound 3.16 µM
[18] = second compound 0.00949 µM, first compound 10 µM
[19] = second compound 0.03 µM, first compound 0.0316 µM
[20] = second compound 0.03 µM, first compound 0.1 µM
[21] = second compound 0.03 µM, first compound 0.316 µM
[22] = second compound 0.03 µM, first compound 1 µM
[23] = second compound 0.03 µM, first compound 3.16 µM
[24] = second compound 0.03 µM, first compound 10 µM
[25] = second compound 0.0949 µM, first compound 0.0316 µM
[26] = second compound 0.0949 µM, first compound 0.1 µM
[27] = second compound 0.0949 µM, first compound 0.316 µM
[28] = second compound 0.0949 µM, first compound 1 µM
[29] = second compound 0.0949 µM, first compound 3.16 µM
[30] = second compound 0.0949 µM, first compound 10 µM
[31] = second compound 0.3 µM, first compound 0.0316 µM
[32] = second compound 0.3 µM, first compound 0.1 µM
[33] = second compound 0.3 µM, first compound 0.316 µM
[34] = second compound 0.3 µM, first compound 1 µM
[35] = second compound 0.3 µM, first compound 3.16 µM
[36] = second compound 0.3 µM, first compound 10 µM
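Also: spheroids exposed to compound for 7 days before readout.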
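For viability, T/C in this document: 100% = DMSO vehicle control luminescence.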

## CC(C)NCC(C(=O)N1CCN(c2ncnc3c2C(C)CC3O)CC1)c1ccc(Cl)cc1 (stereo not drawn) + CCn1c(-c2cccnc2C(C)OC)c2c3cc(ccc31)N1CCOC(CC(NC(=O)C(C(C)C)N(C)C(=O)C3(F)CCN(C(=O)C#CC(C)(C)N(C)C)CC3)C(=O)N3CCCC(N3)C(=O)OCC(C)(C)C2)C1
Second compound 0.000949 µM
  IC50: > 10 µM
Second compound 0.003 µM
  IC50: > 10 µM
Second compound 0.00949 µM
  IC50: > 10 µM
Second compound 0.03 µM
  IC50: > 10 µM
Second compound 0.0949 µM
  IC50: > 10 µM
Second compound 0.3 µM
  IC50: > 10 µM
[1]
  viability, T/C: 104%
[2]
  viability, T/C: 98%
[3]
  viability, T/C: 99.6%
[4]
  viability, T/C: 89.8%
[5]
  viability, T/C: 105%
[6]
  viability, T/C: 85.4%
[7]
  viability, T/C: 105%
[8]
  viability, T/C: 104%
[9]
  viability, T/C: 102%
[10]
  viability, T/C: 99.1%
[11]
  viability, T/C: 102%
[12]
  viability, T/C: 81.8%
[13]
  viability, T/C: 108%
[14]
  viability, T/C: 102%
[15]
  viability, T/C: 101%
[16]
  viability, T/C: 90.7%
[17]
  viability, T/C: 107%
[18]
  viability, T/C: 91.3%
[19]
  viability, T/C: 106%
[20]
  viability, T/C: 111%
[21]
  viability, T/C: 84.6%
[22]
  viability, T/C: 98.4%
[23]
  viability, T/C: 106%
[24]
  viability, T/C: 81.5%
[25]
  viability, T/C: 84.8%
[26]
  viability, T/C: 101%
[27]
  viability, T/C: 93.8%
[28]
  viability, T/C: 99.9%
[29]
  viability, T/C: 106%
[30]
  viability, T/C: 79.2%
[31]
  viability, T/C: 94.5%
[32]
  viability, T/C: 102%
[33]
  viability, T/C: 86.6%
[34]
  viability, T/C: 87.8%
[35]
  viability, T/C: 95.5%
[36]
  viability, T/C: 72.6%

## CC(C)n1nc(-c2ccc3oc(N)nc3c2)c2c(N)ncnc21 + CCn1c(-c2cccnc2C(C)OC)c2c3cc(ccc31)N1CCOC(CC(NC(=O)C(C(C)C)N(C)C(=O)C3(F)CCN(C(=O)C#CC(C)(C)N(C)C)CC3)C(=O)N3CCCC(N3)C(=O)OCC(C)(C)C2)C1
Second compound 0.000949 µM
  IC50: 0.0568 µM
Second compound 0.003 µM
  IC50: 0.0577 µM
Second compound 0.00949 µM
  IC50: 0.0484 µM
Second compound 0.03 µM
  IC50: 0.0615 µM
Second compound 0.0949 µM
  IC50: 0.0574 µM
Second compound 0.3 µM
  IC50: 0.0498 µM
Second compound 0.000949 µM, first compound 0.000316 µM
  viability, T/C: 95.8%
Second compound 0.000949 µM, first compound 0.001 µM
  viability, T/C: 93.2%
Second compound 0.000949 µM, first compound 0.00316 µM
  viability, T/C: 88.7%
Second compound 0.000949 µM, first compound 0.01 µM
  viability, T/C: 74.5%
[1]
  viability, T/C: 63.6%
[2]
  viability, T/C: 38%
Second compound 0.003 µM, first compound 0.000316 µM
  viability, T/C: 102%
Second compound 0.003 µM, first compound 0.001 µM
  viability, T/C: 90.6%
Second compound 0.003 µM, first compound 0.00316 µM
  viability, T/C: 86.7%
Second compound 0.003 µM, first compound 0.01 µM
  viability, T/C: 77.6%
[7]
  viability, T/C: 64.8%
[8]
  viability, T/C: 37.7%
Second compound 0.00949 µM, first compound 0.000316 µM
  viability, T/C: 99.3%
Second compound 0.00949 µM, first compound 0.001 µM
  viability, T/C: 97.8%
Second compound 0.00949 µM, first compound 0.00316 µM
  viability, T/C: 96%
Second compound 0.00949 µM, first compound 0.01 µM
  viability, T/C: 77.3%
[13]
  viability, T/C: 60%
[14]
  viability, T/C: 34.9%
Second compound 0.03 µM, first compound 0.000316 µM
  viability, T/C: 100%
Second compound 0.03 µM, first compound 0.001 µM
  viability, T/C: 87.6%
Second compound 0.03 µM, first compound 0.00316 µM
  viability, T/C: 89.1%
Second compound 0.03 µM, first compound 0.01 µM
  viability, T/C: 82.5%
[19]
  viability, T/C: 60.5%
[20]
  viability, T/C: 41.3%
Second compound 0.0949 µM, first compound 0.000316 µM
  viability, T/C: 93%
Second compound 0.0949 µM, first compound 0.001 µM
  viability, T/C: 95.6%
Second compound 0.0949 µM, first compound 0.00316 µM
  viability, T/C: 80.2%
Second compound 0.0949 µM, first compound 0.01 µM
  viability, T/C: 78.6%
[25]
  viability, T/C: 63.8%
[26]
  viability, T/C: 37.9%
Second compound 0.3 µM, first compound 0.000316 µM
  viability, T/C: 84.3%
Second compound 0.3 µM, first compound 0.001 µM
  viability, T/C: 89.4%
Second compound 0.3 µM, first compound 0.00316 µM
  viability, T/C: 77.2%
Second compound 0.3 µM, first compound 0.01 µM
  viability, T/C: 72.5%
[31]
  viability, T/C: 58.9%
[32]
  viability, T/C: 36.8%

## CC(Nc1ccc2c(c1)OCCn1cc(N3C(=O)OCC3C(F)F)nc1-2)C(N)=O (stereo not drawn) + CCn1c(-c2cccnc2C(C)OC)c2c3cc(ccc31)N1CCOC(CC(NC(=O)C(C(C)C)N(C)C(=O)C3(F)CCN(C(=O)C#CC(C)(C)N(C)C)CC3)C(=O)N3CCCC(N3)C(=O)OCC(C)(C)C2)C1
Second compound 0.000949 µM
  IC50: > 10 µM
Second compound 0.003 µM
  IC50: > 10 µM
Second compound 0.00949 µM
  IC50: 9.58 µM
Second compound 0.03 µM
  IC50: 7.84 µM
Second compound 0.0949 µM
  IC50: > 10 µM
Second compound 0.3 µM
  IC50: 7.83 µM
[1]
  viability, T/C: 96.7%
[2]
  viability, T/C: 83.7%
[3]
  viability, T/C: 73%
[4]
  viability, T/C: 79.4%
[5]
  viability, T/C: 59.8%
[6]
  viability, T/C: 50.9%
[7]
  viability, T/C: 102%
[8]
  viability, T/C: 82.3%
[9]
  viability, T/C: 82.7%
[10]
  viability, T/C: 67.4%
[11]
  viability, T/C: 66.7%
[12]
  viability, T/C: 50.1%
[13]
  viability, T/C: 87.1%
[14]
  viability, T/C: 89.5%
[15]
  viability, T/C: 80.7%
[16]
  viability, T/C: 69%
[17]
  viability, T/C: 68%
[18]
  viability, T/C: 48.1%
[19]
  viability, T/C: 92.4%
[20]
  viability, T/C: 83.6%
[21]
  viability, T/C: 80.7%
[22]
  viability, T/C: 69.6%
[23]
  viability, T/C: 66.3%
[24]
  viability, T/C: 44.4%
[25]
  viability, T/C: 95.8%
[26]
  viability, T/C: 79.1%
[27]
  viability, T/C: 72.3%
[28]
  viability, T/C: 71.4%
[29]
  viability, T/C: 62.9%
[30]
  viability, T/C: 50.8%
[31]
  viability, T/C: 76.7%
[32]
  viability, T/C: 71%
[33]
  viability, T/C: 70.8%
[34]
  viability, T/C: 64.9%
[35]
  viability, T/C: 61.4%
[36]
  viability, T/C: 46.6%

## C[C@@H](NC(=O)c1ncnc(N)c1Cl)c1ncc(C(=O)Nc2cc(C(F)(F)F)c(Cl)cn2)s1 + CCn1c(-c2cccnc2C(C)OC)c2c3cc(ccc31)N1CCOC(CC(NC(=O)C(C(C)C)N(C)C(=O)C3(F)CCN(C(=O)C#CC(C)(C)N(C)C)CC3)C(=O)N3CCCC(N3)C(=O)OCC(C)(C)C2)C1
Second compound 0.000949 µM
  IC50: > 10 µM
Second compound 0.003 µM
  IC50: > 10 µM
Second compound 0.00949 µM
  IC50: > 10 µM
Second compound 0.03 µM
  IC50: > 10 µM
Second compound 0.0949 µM
  IC50: > 10 µM
Second compound 0.3 µM
  IC50: > 10 µM
[1]
  viability, T/C: 113%
[2]
  viability, T/C: 113%
[3]
  viability, T/C: 115%
[4]
  viability, T/C: 123%
[5]
  viability, T/C: 117%
[6]
  viability, T/C: 94.7%
[7]
  viability, T/C: 117%
[8]
  viability, T/C: 102%
[9]
  viability, T/C: 119%
[10]
  viability, T/C: 108%
[11]
  viability, T/C: 121%
[12]
  viability, T/C: 96.7%
[13]
  viability, T/C: 105%
[14]
  viability, T/C: 109%
[15]
  viability, T/C: 113%
[16]
  viability, T/C: 108%
[17]
  viability, T/C: 123%
[18]
  viability, T/C: 105%
[19]
  viability, T/C: 113%
[20]
  viability, T/C: 102%
[21]
  viability, T/C: 102%
[22]
  viability, T/C: 109%
[23]
  viability, T/C: 117%
[24]
  viability, T/C: 91.1%
[25]
  viability, T/C: 93.4%
[26]
  viability, T/C: 115%
[27]
  viability, T/C: 110%
[28]
  viability, T/C: 119%
[29]
  viability, T/C: 113%
[30]
  viability, T/C: 90.7%
[31]
  viability, T/C: 87.3%
[32]
  viability, T/C: 108%
[33]
  viability, T/C: 99.6%
[34]
  viability, T/C: 104%
[35]
  viability, T/C: 115%
[36]
  viability, T/C: 88%
